Here are results for six molecules from US11090285B2, “Treatment of circadian rhythm disorders” (Vanda Pharmaceuticals Inc., priority 2013, dated 2021).

The nature of data set [1]: Pharmacokinetics on co-administration of tasimelteon and fluvoxamine. The class given is in vivo, human. The settings on record: for AUC (inf), Geometric Mean Ratio / Cmax, Geometric Mean Ratio / t½, Geometric Mean Ratio: Day 8 vs Day 1; for half-life: read-out: t½ (converted). As to the method:
Twenty-four healthy male or female subjects between the ages of 18 and 55 years of age (inclusive) who were non-smokers with a body mass index (BMI) of ≥18 and ≤35 kg/m2 participated in this open-label, single-sequence study conducted at one site. On day 1, subjects were administered […] of tasimelteon.

Data set [2] is described as follows: Effect of smoking on pharmacokinetics of tasimelteon and metabolites. The class given is in vivo, human. On the set-up: AUC (inf) / AUC(0-inf): concentration or dose not given beside the values. The settings on record: for AUC (inf), Geometric Mean Ratio / Cmax, Geometric Mean Ratio / t½, Geometric Mean Ratio: Smokers vs Non-Smokers; for half-life: read-out: t½ (converted). The text has this:
Smokers were defined as those smoking 10 or more cigarettes per day. Non-smokers were defined as those smoking no cigarettes per day.

The conditions of data set [3]: in vivo; cited from earlier work.
Setting [4] is: both sexes, human, in vivo, Day 1, 5.667 mg tasimelteon alone, read-out: Cmax.
[5] abbreviates: both sexes, human, in vivo, Day 1, 5.667 mg tasimelteon alone, read-out: Tmax.
Setting [6] is: both sexes, human, in vivo, Day 1, 5.667 mg tasimelteon alone.
Setting [7] is: human, in vivo, Non-Smokers, read-out: Cmax.
[8] abbreviates: human, in vivo, Smokers (10 or more cigarettes per day), read-out: Cmax.
Setting [9] is: human, in vivo, Smokers, read-out: Tmax.
Where [10] appears, read: Day 1, 5.667 mg tasimelteon alone.
Setting [11] is: Day 8, 5.667 mg tasimelteon + 50 mg fluvoxamine.
The mark [12] stands for this setting: Smokers (10 or more cigarettes per day).

Molecules are shown by their SMILES. Where two headings read alike, the source gives them in different places. Some results are limits rather than exact numbers.

A word on the t½: it is how long it takes for the measured level to halve.

On to `CCC(=O)NC[C@@H]1C[C@H]1c1cccc(O)c1CC(=O)O` [M9], for which the entries for the “AUC (inf), Geometric Mean Ratio” value in data set [1] and in data set [2] were 122.56% and 74.36%, respectively. The “Cmax, Geometric Mean Ratio” value in data set [1] was 64.94%; in data set [2], 77.18%. The results for the “t½, Geometric Mean Ratio” value in data set [1] and in data set [2] were 328.02% and 85.40%, respectively. Moreover, the Cmax in data set [1] (setting [4]) was found to be 67.6 ± 19.1 ng/mL; in data set [2] (setting [7]), 279 ± 82.8 ng/mL; in data set [2] (setting [8]), 230 ± 118 ng/mL. The values for the Tmax in data set [1] (setting [5]) and in data set [2] (setting [9]) were 0.5 h and 0.75 h, respectively. In addition, the half-life was 1.14 ± 0.29 h in data set [1] (setting [6]); 1.38 ± 0.45 h in data set [2] (human, in vivo, Non-Smokers); 1.15 ± 0.17 h in data set [2] (human, in vivo, Smokers). In addition, the AUC(0-inf) in data set [2] (human, in vivo, Non-Smokers) turned out to be 406 ± 75 ng·h/mL; in data set [2] (human, in vivo, Smokers), 315 ± 112 ng·h/mL.
As to `CCC(=O)NCC1CC1c1cccc2c1C(O)CO2` (stereo not drawn) [M12], in data set [1] (setting [10]), the “AUC (inf)” value was 189 ± 90.8 ng·h/mL, the Cmax stood at 31.0 ± 7.23 ng/mL, the Tmax worked out at 0.88 h and the t½ is given as 3.03 ± 1.02 h. For the same molecule, in data set [1] (setting [11]), the “AUC (inf)” value was 435 ± 109.3 ng·h/mL, the Cmax amounted to 30.8 ± 17.6 ng/mL, the Tmax is 3.00 h and the t½ is given as 7.03 ± 3.27 h. Also, in data set [1], the “AUC (inf), Geometric Mean Ratio” value was 274.81%; the “Cmax, Geometric Mean Ratio” value came out at 92.74%; the “t½, Geometric Mean Ratio” value turned out to be 241.02%. Also, in data set [2] (Non-Smokers), the “AUC (inf)” value came out at 679 ± 433 ng·h/mL, the Cmax worked out at 108 ± 29 ng/mL, the Tmax stood at 1.00 h and the t½ was 3.05 ± 1.73 h. Besides, in data set [2] (Smokers), the “AUC (inf)” value turned out to be 526 ± 193 ng·h/mL, the Tmax came to 1.00 h and the t½ is recorded as 2.11 ± 0.67 h. Moreover, in data set [2] (setting [12]), the Cmax amounted to 123 ± 28 ng/mL. Also, in data set [2], the “AUC (inf), Geometric Mean Ratio” value is 84.87%; the “Cmax, Geometric Mean Ratio” value is reported as 115.53%; the “t½, Geometric Mean Ratio” value worked out at 73.31%.
With `CCC(=O)NCC1CC1c1cccc2c1C(O)CO2` (stereo not drawn) [M14], in data set [1] (setting [10]), the “AUC (inf)” value came out at 4.54 ± 2.39 ng·h/mL, the Cmax was found to be 1.20 ± 0.40 ng/mL, the Tmax stood at 0.75 h and the t½ stood at 2.18 ± 0.97 h. In addition, in data set [1] (setting [11]), the “AUC (inf)” value stood at 42.6 ± 27.3 ng·h/mL, the Cmax was determined as 3.20 ± 1.49 ng/mL, the Tmax was 4.00 h and the t½ is listed as 4.98 ± 1.89 h. Also, in data set [1], the “AUC (inf), Geometric Mean Ratio” value was determined as 944.73%; the “Cmax, Geometric Mean Ratio” value was 264.58%; the “t½, Geometric Mean Ratio” value was found to be 243.34%. Besides, in data set [2] (Non-Smokers), the “AUC (inf)” value came to 22.0 ± 24.2 ng·h/mL, the Cmax is 6.18 ± 3.15 ng/mL, the Tmax amounted to 0.75 h and the t½ was found to be 1.84 ± 1.22 h. In data set [2] (Smokers), the “AUC (inf)” value is 9.45 ± 11.88 ng·h/mL, the Tmax is 0.75 h and the t½ amounted to 1.13 ± 0.54 h. Further, the Cmax in data set [2] (setting [12]) is 3.72 ± 1.86 ng/mL. In addition, in data set [2], the “AUC (inf), Geometric Mean Ratio” value is reported as 42.98%; the “Cmax, Geometric Mean Ratio” value came out at 60.17%; the “t½, Geometric Mean Ratio” value was found to be 65.09%.
Consider `COc1ccc2[nH]cc(CCNC(C)=O)c2c1` [Melatonin], for which the Tmax in data set [3] was at least 2 h.
In the case of `CCC(=O)NC[C@@H]1C[C@H]1c1cccc2c1CC(O)O2` (stereo partly drawn) [M13], in data set [1] (setting [10]), the “AUC (inf)” value came out at 106 ± 32.6 ng·h/mL, the Cmax was 87.5 ± 24.4 ng/mL, the Tmax is recorded as 0.50 h and the t½ stood at 1.00 ± 0.30 h. Further, in data set [1] (setting [11]), the “AUC (inf)” value was 133 ± 32.9 ng·h/mL, the Cmax was 63.6 ± 24.6 ng/mL, the Tmax worked out at 0.50 h and the t½ turned out to be 3.51 ± 1.18 h. Moreover, in data set [1], the “AUC (inf), Geometric Mean Ratio” value was found to be 125.05%; the “Cmax, Geometric Mean Ratio” value was 69.31%; the “t½, Geometric Mean Ratio” value was determined as 349.81%. Moreover, in data set [2] (Non-Smokers), the “AUC (inf)” value came to 337 ± 94 ng·h/mL, the Cmax came to 270 ± 71 ng/mL, the Tmax worked out at 0.50 h and the t½ was 1.18 ± 0.50 h. Besides, in data set [2] (Smokers), the “AUC (inf)” value was found to be 329 ± 99 ng·h/mL, the Tmax is 0.75 h and the t½ is on record as 0.89 ± 0.26 h. In data set [2] (setting [12]), the Cmax amounted to 272 ± 86 ng/mL. Further, in data set [2], the “AUC (inf), Geometric Mean Ratio” value is 97.31%; the “Cmax, Geometric Mean Ratio” value was found to be 99.49%; the “t½, Geometric Mean Ratio” value was 77.51%.
On to `CCC(=O)NC[C@@H]1C[C@H]1c1cccc(O)c1CCO` [M11], for which the “AUC (inf), Geometric Mean Ratio” value was 126.03% in data set [1] and 81.84% in data set [2]. In addition, the “Cmax, Geometric Mean Ratio” value is given as 68.71% in data set [1] and 84.50% in data set [2]. The “t½, Geometric Mean Ratio” value worked out at 248.35% in data set [1] and 94.13% in data set [2]. Further, the figures for the Cmax in data set [1] (setting [4]), in data set [2] (setting [7]) and in data set [2] (setting [8]) were 15.8 ± 5.4 ng/mL, 54.9 ± 15.1 ng/mL and 46.2 ± 11.9 ng/mL, respectively. In addition, the Tmax in data set [1] (setting [5]) and in data set [2] (setting [9]) was 1 h in each case. For the same molecule, the half-life in data set [1] (setting [6]) is 1.61 ± 0.55 h; in data set [2] (human, in vivo, Non-Smokers), 2.14 ± 0.94 h; in data set [2] (human, in vivo, Smokers), 1.99 ± 0.85 h. For the same molecule, the AUC(0-inf) in data set [2] (human, in vivo, Non-Smokers) worked out at 154 ± 58 ng·h/mL; in data set [2] (human, in vivo, Smokers), 124 ± 42 ng·h/mL.
